Laboratory results published in US11345691B2, “Prodrug modulators of the cystic fibrosis transmembrane conductance regulator protein and methods of use” (AbbVie Global Enterprises Ltd., priority 2019, dated 2022).

Test: Phase 1 first-in-human single ascending dose pharmacokinetic study (Pharmacokinetic Study 1)
Type: in vivo
Conditions: after single oral 250 mg or 500 mg dose of Example 4—Prodrug; healthy adult subjects
Method: Evaluate the PK profile of Example 4, which is a prodrug of (5-{3-amino-5-[4-(trifluoromethoxy)benzene-1-sulfonyl]pyridin-2-yl}-1,3,4-oxadiazol-2-yl)methanol, in healthy human adult subjects.
Two open label Phase 1, first in human studies in adult healthy subjects were conducted to evaluate the safety, tolerability, and pharmacokinetics of single oral doses of Example 1 administered as an oral suspension and prodrug Example 4 capsule, respectively. Subjects were screened and enrolled based on pre-specified criteria for inclusion and exclusion. The safety in subjects was determined by clinical evaluation and by monitoring of laboratory parameters. Blood samples were longitudinally collected at pre-specified time points following the administration of Example 1 or Example 4—Prodrug to measure the plasma concentrations of study drug and determine the pharmacokinetics of Example 1 and Example 4—Prodrug.
For this study the inclusion criteria includes the following: • 1. […]
Plasma concentrations of Example 1 and Example 4—Prodrug were determined using validated methods. The values for the pharmacokinetic parameters of Example 1 or Example 4—Prodrug were determined using noncompartmental methods with WinNonlin Phoenix 8.1.

Plasma concentrations of intact Example 4—Prodrug: no quantifiable plasma concentrations
SMILES: CC(C)[C@H](N)C(=O)OCc1nnc(-c2ncc(S(=O)(=O)c3ccc(OC(F)(F)F)cc3)cc2N)o1 [Example 4, (5-{3-amino-5-[4-(trifluoromethoxy)benzene-1-sulfonyl]pyridin-2-yl}-1,3,4-oxadiazol-2-yl)methyl (2S)-2-amino-3-methylbutanoate]
